Tests used:
Type in all cases: cell-based
KCC2 [1] = target: T1, KCC2 (Rattus norvegicus, UniProt Q63633); test: SuperClomeleon Cl- flux assay in HEK-293 with and without KCC2
T1 construct: gene Slc12a5; KCC2b isoform expressed in T-REx-293 cells
T1 sequence (Q63633 43-1139 limits assumed): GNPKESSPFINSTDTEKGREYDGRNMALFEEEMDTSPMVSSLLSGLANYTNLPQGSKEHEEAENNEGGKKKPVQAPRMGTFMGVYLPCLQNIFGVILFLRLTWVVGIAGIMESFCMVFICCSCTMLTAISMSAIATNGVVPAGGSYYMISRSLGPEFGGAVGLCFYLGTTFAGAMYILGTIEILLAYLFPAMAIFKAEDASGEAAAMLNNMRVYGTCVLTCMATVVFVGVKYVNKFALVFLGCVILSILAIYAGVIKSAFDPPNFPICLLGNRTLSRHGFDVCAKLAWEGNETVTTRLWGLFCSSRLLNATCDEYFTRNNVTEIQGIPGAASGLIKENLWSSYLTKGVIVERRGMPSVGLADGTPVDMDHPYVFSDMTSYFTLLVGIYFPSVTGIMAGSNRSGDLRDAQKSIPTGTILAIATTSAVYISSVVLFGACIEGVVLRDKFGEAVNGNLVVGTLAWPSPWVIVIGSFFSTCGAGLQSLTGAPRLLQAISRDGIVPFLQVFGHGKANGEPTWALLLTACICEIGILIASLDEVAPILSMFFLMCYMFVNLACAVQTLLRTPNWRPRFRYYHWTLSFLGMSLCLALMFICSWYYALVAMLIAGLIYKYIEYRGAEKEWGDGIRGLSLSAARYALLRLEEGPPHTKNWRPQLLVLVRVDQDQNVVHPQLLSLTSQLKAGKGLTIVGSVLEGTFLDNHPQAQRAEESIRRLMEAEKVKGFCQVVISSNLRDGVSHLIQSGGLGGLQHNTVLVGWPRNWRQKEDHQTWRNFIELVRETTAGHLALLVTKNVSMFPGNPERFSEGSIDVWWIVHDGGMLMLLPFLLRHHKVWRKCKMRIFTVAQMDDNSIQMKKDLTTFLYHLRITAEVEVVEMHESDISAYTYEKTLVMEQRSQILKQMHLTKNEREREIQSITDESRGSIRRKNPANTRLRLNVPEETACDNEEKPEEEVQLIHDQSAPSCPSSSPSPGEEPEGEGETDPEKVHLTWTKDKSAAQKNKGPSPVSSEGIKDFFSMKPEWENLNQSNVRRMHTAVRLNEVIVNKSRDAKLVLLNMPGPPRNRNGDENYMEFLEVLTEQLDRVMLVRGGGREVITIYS

KCC2 [2] = target: T1, KCC2; test: SuperClomeleon Cl- flux assay in HEK-293 with and without KCC2; Tl+ and […]+ influx
KCC2 [3] = target: T1, KCC2; test: SuperClomeleon Cl- flux assay in HEK-293 overexpressing KCC2

Cc1cccc2sc(N(CCN(C)C)C(=O)CCCS(=O)(=O)c3ccccc3)nc12 [VU0500458, N-(2-(Dimethylamino)Ethyl)-N-(4-Methylbenzo[d]Thiazol-2-yl)-4-(Phenylsulfonyl)Butanamide]
EC50 (KCC2 [1]): 28.8 ± 4.2 µM

Cc1ccc(S(=O)(=O)CCCC(=O)N(CCN(C)C)c2nc3c(C)cccc3s2)cc1 [VU0500469, N-(2-(Dimethylamino)Ethyl)-N-(4-Methylbenzo[d]Thiazol-2-yl)-4-Tosylbutanamide]
EC50 (KCC2 [2]): 14.2 ± 0.7 µM

Cc1cccc2sc(N(CCN(C)C)C(=O)CCCS(=O)(=O)c3ccc(F)cc3)nc12 [VU0916219, N-(2-(Dimethylamino)Ethyl)-4-((4-Fluorophenyl)Sulfonyl)-N-(4-Methylbenzo[d]Thiazol-2-yl)Butanamide]
EC50 (KCC2 [3]): 17.1 ± 1.2 µM
